Marks after values point to notes of the source that are not given here.
Tests used:
[1] = tested on: male rats; assay: 28-day repeated dose oral toxicity study (OECD 407) with GC-MS/LC-MS plasma metabolite profiling, male rats; format: in vivo, rat; settings: plasma
Excerpt: Drinking water was also offered ad libitum.
The samples were centrifuged for generation of plasma.

[2] = tested on: female rats; assay: 28-day repeated dose oral toxicity study (OECD 407) with GC-MS/LC-MS plasma metabolite profiling, female rats
Method: A group of each 5 male and female rats was dosed once daily with the indicated compounds (see Table 5, below for compounds, applied doses and administeration details) over 28 days.
Each dose group in the studies consisted of five rats per sex. Additional groups of each 5 male and female animals served as controls. Before starting the treatment period, animals, which were 62-64 days old when supplied, were acclimatized to the housing and environmental conditions for 7 days. All animals of the animal population were kept under the same constant temperature (20-24±3° C.) and the same constant humidity (30-70%). The animals of the animal population were fed ad libitum. The food to be used was essentially free of chemical or microbial contaminants. Drinking water was also offered ad libitum. Accordingly, the water was free of chemical and microbial contaminants as laid down in the European Drinking Water Directive 98/83/EG. The illumination period was 12 hours light followed by 12 hours darkness (12 hours light, from 6:00 to 18:00, and 12 hours darkness, from 18:00 to 6:00).
In the morning of day 7, 14, and 28, blood was taken from the retroorbital venous plexus from fasted anaesthetized animals. From each animal, 1 ml of blood was collected with EDTA as anticoagulant. The samples were centrifuged for generation of plasma. All plasma samples were covered with a N2 atmosphere and then stored at −80° C. until analysis.
For mass spectrometry-based metabolite profiling analyses plasma samples were extracted and a polar and a non-polar (lipid) fraction was obtained. For GC-MS analysis, the non-polar fraction was treated with methanol under acidic conditions to yield the fatty acid methyl esters. Both fractions were further derivatised with O-methyl-hydroxyamine hydrochloride and pyridine to convert Oxogroups to O-methyloximes and subsequently with a silylating agent before analysis. In LC-MS analysis, both fractions were reconstituted in appropriate solvent mixtures. HPLC was performed by gradient elution on reversed phase separation columns.
Following comprehensive analytical validation steps, the data for each analyte were normalized against data from pool samples. These samples were run in parallel through the whole process to account for process variability. The significance of treatment group values specific for sex, treatment duration and metabolite was determined by comparing means of the treated groups to the means of the respective untreated control groups using WELCH-test and quantified with treatment ratios versus control and p-values.

SMILES: Cc1cccc(C)c1N(Cn1cccn1)C(=O)CCl [Metazachlor, N-(2,6-dimethylphenyl)-N-(pyrazol-1-ylmethyl)chloroacetamid]
- 4-Hydroxyphenylpyruvate, ratio versus control ([1]; day 7): 2.23*
- Glycerol-3-phosphate, polar fraction, ratio versus control ([1]; day 7): 1.04
- Phosphatidylcholine (C16:1,C18:2), ratio versus control ([1]; day 7): 1.29*
- Phosphatidylcholine (C18:0,C18:1), ratio versus control ([1]; day 7): 1.56*
- Phosphatidylcholine (C18:0,C18:2), ratio versus control ([1]; day 7): 1.4*
- Phytosphingosine, ratio versus control ([1]; day 7): 2.08*
- Lysophosphatidylcholine (C18:1), ratio versus control ([1]; day 7 (Table 2)): 1.1*
- Phosphatidylcholine (C16:0,C20:5), ratio versus control ([1]; day 7 (Table 2)): 1
- alpha-Tocopherol, ratio versus control ([1]; day 7 (Table 2)): 1.8*
- 4-Hydroxyphenylpyruvate, ratio versus control ([1]; day 14): 2.59*
- Glycerol-3-phosphate, polar fraction, ratio versus control ([1]; day 14): 1.63*
- Phosphatidylcholine (C16:1,C18:2), ratio versus control ([1]; day 14): 2.11*
- Phosphatidylcholine (C18:0,C18:1), ratio versus control ([1]; day 14): 2.37*
- Phosphatidylcholine (C18:0,C18:2), ratio versus control ([1]; day 14): 1.55*
- Phytosphingosine, ratio versus control ([1]; day 14): 2.86*
- Lysophosphatidylcholine (C18:1), ratio versus control ([1]; day 14 (Table 2)): 1.49*
- Phosphatidylcholine (C16:0,C20:5), ratio versus control ([1]; day 14 (Table 2)): 1.47*
- alpha-Tocopherol, ratio versus control ([1]; day 14 (Table 2)): 1.3*
- 4-Hydroxyphenylpyruvate, ratio versus control ([1]; day 28): 3.26*
- Glycerol-3-phosphate, polar fraction, ratio versus control ([1]; day 28): 1.52*
- Phosphatidylcholine (C16:1,C18:2), ratio versus control ([1]; day 28): 2.32*
- Phosphatidylcholine (C18:0,C18:1), ratio versus control ([1]; day 28): 2.06*
- Phosphatidylcholine (C18:0,C18:2), ratio versus control ([1]; day 28): 1.51*
- Phytosphingosine, ratio versus control ([1]; day 28): 3.2*
- Lysophosphatidylcholine (C18:1), ratio versus control ([1]; day 28 (Table 2)): 1.33*
- Phosphatidylcholine (C16:0,C20:5), ratio versus control ([1]; day 28 (Table 2)): 1.67*
- alpha-Tocopherol, ratio versus control ([1]; day 28 (Table 2)): 1.49*
- 3-O-Methylsphingosine (d18:1), ratio versus control ([2]; day 7): 5.2*
- 5-O-Methylsphingosine (d18:1), ratio versus control ([2]; day 7): 5.11*
- 14-Methylhexadecanoic acid, ratio versus control ([2]; day 7): 1.18*
- Behenic acid (C22:0), ratio versus control ([2]; day 7): 2.8*
- Cholesterol, ratio versus control ([2]; day 7): 2.52*
- Coenzyme Q9, ratio versus control ([2]; day 7): 2.3*
- DAG (C18:1,C18:2), ratio versus control ([2]; day 7): 1.52*
- Eicosanoic acid (C20:0), ratio versus control ([2]; day 7): 2.17*
- Glucose, ratio versus control ([2]; day 7): 1.4*
- Glycerol phosphate, lipid fraction, ratio versus control ([2]; day 7): 2.41*
- Glycerol, lipid fraction, ratio versus control ([2]; day 7): 1.89*
- Glycerol-3-phosphate, polar fraction, ratio versus control ([2]; day 7): 1.61*
- Heptadecanoic acid (C17:0), ratio versus control ([2]; day 7): 1.53*
- Linoleic acid (C18:cis[9,12]2), ratio versus control ([2]; day 7): 2.33*
- Nervonic acid (C24:cis[15]1), ratio versus control ([2]; day 7): 4.5*
- Palmitic acid (C16:0), ratio versus control ([2]; day 7): 1.96*
- Phosphatidylcholine (C16:0,C20:5), ratio versus control ([2]; day 7): 1.18*
- TAG (C16:0,C18:1,C18:3), ratio versus control ([2]; day 7): 2.84*
- TAG (C16:0,C18:2), ratio versus control ([2]; day 7): 2.65*
- TAG (C18:1,C18:2), ratio versus control ([2]; day 7): 2.65*
- TAG (C18:2,C18:2), ratio versus control ([2]; day 7): 2.42*
- TAG (C18:2,C18:3), ratio versus control ([2]; day 7): 2.42*
- TAG No 01, ratio versus control ([2]; day 7): 1.87*
- TAG No 05, ratio versus control ([2]; day 7): 2.27*
- TAG No 07, ratio versus control ([2]; day 7): 1.97
- dihomo-gamma-Linolenic acid (C20:cis[8,11,14]3), ratio versus control ([2]; day 7): 2.69*
- erythro-Sphingosine, ratio versus control ([2]; day 7): 4.06*
- 3-O-Methylsphingosine (d18:1), ratio versus control ([2]; day 14): 7.58*
- 5-O-Methylsphingosine (d18:1), ratio versus control ([2]; day 14): 7.74*
- 14-Methylhexadecanoic acid, ratio versus control ([2]; day 14): 1.17*
- Behenic acid (C22:0), ratio versus control ([2]; day 14): 4.3*
- Cholesterol, ratio versus control ([2]; day 14): 2.96*
- Coenzyme Q9, ratio versus control ([2]; day 14): 2.09*
- DAG (C18:1,C18:2), ratio versus control ([2]; day 14): 1.92*
- Eicosanoic acid (C20:0), ratio versus control ([2]; day 14): 3.19*
- Glucose, ratio versus control ([2]; day 14): 1.17*
- Glycerol phosphate, lipid fraction, ratio versus control ([2]; day 14): 3.43*
- Glycerol, lipid fraction, ratio versus control ([2]; day 14): 2.34*
- Glycerol-3-phosphate, polar fraction, ratio versus control ([2]; day 14): 1.72*
- Heptadecanoic acid (C17:0), ratio versus control ([2]; day 14): 1.98*
- Linoleic acid (C18:cis[9,12]2), ratio versus control ([2]; day 14): 3.2*
- Nervonic acid (C24:cis[15]1), ratio versus control ([2]; day 14): 5.92*
- Palmitic acid (C16:0), ratio versus control ([2]; day 14): 2.83*
- Phosphatidylcholine (C16:0,C20:5), ratio versus control ([2]; day 14): 1.46*
- TAG (C16:0,C18:1,C18:3), ratio versus control ([2]; day 14): 3.67*
- TAG (C16:0,C18:2), ratio versus control ([2]; day 14): 3.69*
- TAG (C18:1,C18:2), ratio versus control ([2]; day 14): 2.74*
- TAG (C18:2,C18:2), ratio versus control ([2]; day 14): 2.51*
- TAG (C18:2,C18:3), ratio versus control ([2]; day 14): 2.89*
- TAG No 01, ratio versus control ([2]; day 14): 1.99*
- TAG No 05, ratio versus control ([2]; day 14): 4.68*
- TAG No 07, ratio versus control ([2]; day 14): 3.87*
- dihomo-gamma-Linolenic acid (C20:cis[8,11,14]3), ratio versus control ([2]; day 14): 4.76*
- erythro-Sphingosine, ratio versus control ([2]; day 14): 5.79*
- 3-O-Methylsphingosine (d18:1), ratio versus control ([2]; day 28): 5.44*
- 5-O-Methylsphingosine (d18:1), ratio versus control ([2]; day 28): 5.42*
- 14-Methylhexadecanoic acid, ratio versus control ([2]; day 28): 1.19*
- Behenic acid (C22:0), ratio versus control ([2]; day 28): 3.4*
- Cholesterol, ratio versus control ([2]; day 28): 2.72*
- Coenzyme Q9, ratio versus control ([2]; day 28): 1.75*
- DAG (C18:1,C18:2), ratio versus control ([2]; day 28): 2.94*
- Eicosanoic acid (C20:0), ratio versus control ([2]; day 28): 2.49*
- Glucose, ratio versus control ([2]; day 28): 0.99
- Glycerol phosphate, lipid fraction, ratio versus control ([2]; day 28): 2.93*
- Glycerol, lipid fraction, ratio versus control ([2]; day 28): 3.13*
- Glycerol-3-phosphate, polar fraction, ratio versus control ([2]; day 28): 1.55*
- Heptadecanoic acid (C17:0), ratio versus control ([2]; day 28): 2.08*
- Linoleic acid (C18:cis[9,12]2), ratio versus control ([2]; day 28): 3.43*
- Nervonic acid (C24:cis[15]1), ratio versus control ([2]; day 28): 5.03*
- Palmitic acid (C16:0), ratio versus control ([2]; day 28): 2.86*
- Phosphatidylcholine (C16:0,C20:5), ratio versus control ([2]; day 28): 1.26*
- TAG (C16:0,C18:1,C18:3), ratio versus control ([2]; day 28): 5.22*
- TAG (C16:0,C18:2), ratio versus control ([2]; day 28): 3.73*
- TAG (C18:1,C18:2), ratio versus control ([2]; day 28): 3.09*
- TAG (C18:2,C18:2), ratio versus control ([2]; day 28): 4.34*
- TAG (C18:2,C18:3), ratio versus control ([2]; day 28): 4.18*
- TAG No 01, ratio versus control ([2]; day 28): 3.16*
- TAG No 05, ratio versus control ([2]; day 28): 5.27*
- TAG No 07, ratio versus control ([2]; day 28): 4.1*
- dihomo-gamma-Linolenic acid (C20:cis[8,11,14]3), ratio versus control ([2]; day 28): 4.48*
- erythro-Sphingosine, ratio versus control ([2]; day 28): 4.33*

— patent US20150017667A1, “MEANS AND METHODS FOR ASSESSING LIVER DISORDERS” (BASF SE, priority 2012, published 2015)
